Assay results as given in patent publication US20100092402A1, “TREATMENT OF RESPIRATORY DISEASE” (Mucokinetica Ltd., priority 2007, published 2010).
Read-outs that look alike come from different tables or passages of the source. Blank lines part the entries; values can stand above or below the compound they belong to.

Key:
ENaC = target: T1, ENaC (Homo sapiens, UniProt P37088+P51168+P51170); conditions: same range as 50% to 70% of amiloride inhibition; Bridges et al. 2001; cited from earlier work
T1 construct: Treatment of airway epithelial cells with BAY 39-9437 results in reduction of ENaC activity; host or cells: airway epithelial cells (Bridges et al 2001)
T1 sequence (P37088 1-669): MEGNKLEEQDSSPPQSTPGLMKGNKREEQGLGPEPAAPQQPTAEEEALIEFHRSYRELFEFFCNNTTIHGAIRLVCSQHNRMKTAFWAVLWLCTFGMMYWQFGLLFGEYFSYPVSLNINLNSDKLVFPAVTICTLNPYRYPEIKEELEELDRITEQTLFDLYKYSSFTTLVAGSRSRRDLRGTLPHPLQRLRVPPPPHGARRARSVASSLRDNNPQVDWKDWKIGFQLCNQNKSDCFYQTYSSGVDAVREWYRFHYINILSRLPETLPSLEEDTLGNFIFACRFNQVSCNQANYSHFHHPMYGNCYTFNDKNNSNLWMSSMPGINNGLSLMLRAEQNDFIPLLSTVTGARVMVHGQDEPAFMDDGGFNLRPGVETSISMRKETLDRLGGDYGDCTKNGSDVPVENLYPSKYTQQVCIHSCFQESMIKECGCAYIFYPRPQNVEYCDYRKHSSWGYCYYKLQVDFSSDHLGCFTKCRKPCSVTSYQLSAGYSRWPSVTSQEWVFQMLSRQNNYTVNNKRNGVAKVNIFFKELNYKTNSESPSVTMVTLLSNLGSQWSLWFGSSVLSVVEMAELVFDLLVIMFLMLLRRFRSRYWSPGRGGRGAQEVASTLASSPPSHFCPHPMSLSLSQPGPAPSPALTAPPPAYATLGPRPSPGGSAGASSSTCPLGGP
T1 sequence (P51168 1-640): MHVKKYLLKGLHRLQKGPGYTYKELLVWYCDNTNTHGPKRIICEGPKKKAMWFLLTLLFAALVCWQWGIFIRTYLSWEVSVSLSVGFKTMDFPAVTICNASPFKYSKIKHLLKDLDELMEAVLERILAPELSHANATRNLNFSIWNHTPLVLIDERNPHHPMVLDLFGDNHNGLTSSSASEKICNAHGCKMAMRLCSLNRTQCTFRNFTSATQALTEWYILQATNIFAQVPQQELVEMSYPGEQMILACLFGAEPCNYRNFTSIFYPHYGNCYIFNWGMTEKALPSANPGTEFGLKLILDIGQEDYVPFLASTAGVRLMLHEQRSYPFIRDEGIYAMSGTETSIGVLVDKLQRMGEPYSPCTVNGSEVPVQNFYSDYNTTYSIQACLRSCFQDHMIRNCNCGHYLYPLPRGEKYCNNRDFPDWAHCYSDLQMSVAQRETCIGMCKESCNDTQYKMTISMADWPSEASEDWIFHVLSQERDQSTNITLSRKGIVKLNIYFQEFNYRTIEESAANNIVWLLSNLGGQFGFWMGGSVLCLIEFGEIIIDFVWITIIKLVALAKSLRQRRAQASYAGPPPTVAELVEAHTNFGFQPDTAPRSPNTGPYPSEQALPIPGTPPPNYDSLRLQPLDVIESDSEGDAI
T1 sequence (P51170 1-649): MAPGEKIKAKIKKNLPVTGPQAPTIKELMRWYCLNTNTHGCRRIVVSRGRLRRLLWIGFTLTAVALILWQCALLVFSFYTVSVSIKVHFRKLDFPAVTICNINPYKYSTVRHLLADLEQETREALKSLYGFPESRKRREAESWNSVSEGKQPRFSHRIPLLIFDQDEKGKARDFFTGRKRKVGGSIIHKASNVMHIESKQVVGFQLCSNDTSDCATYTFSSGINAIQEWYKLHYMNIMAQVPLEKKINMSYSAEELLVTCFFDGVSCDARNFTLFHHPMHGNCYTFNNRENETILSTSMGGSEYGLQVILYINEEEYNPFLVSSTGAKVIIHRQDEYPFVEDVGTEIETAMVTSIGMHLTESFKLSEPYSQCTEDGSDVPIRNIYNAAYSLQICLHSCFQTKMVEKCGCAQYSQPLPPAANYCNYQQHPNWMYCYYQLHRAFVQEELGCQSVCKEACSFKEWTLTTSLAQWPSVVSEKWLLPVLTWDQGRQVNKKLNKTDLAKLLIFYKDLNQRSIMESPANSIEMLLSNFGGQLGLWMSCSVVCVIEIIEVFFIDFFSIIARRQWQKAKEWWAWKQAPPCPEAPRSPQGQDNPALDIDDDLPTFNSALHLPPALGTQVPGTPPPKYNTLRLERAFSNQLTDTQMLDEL

[1] = target: T2, epithelial amiloride-sensitive sodium channel (ENaC) (Homo sapiens, UniProt P37088+P51168+P51170); type: cell-based; conditions: 1 μM or 100 μM, 90 min
T2 sequence (P37088 1-669): T1 sequence (P37088 1-669)
T2 sequence (P51168 1-640): T1 sequence (P51168 1-640)
T2 sequence (P51170 1-649): T1 sequence (P51170 1-649)
Description: (§1) Human bronchial epithelial (HBE) cells were purchased from Cambrex Bioscience Ltd, UK., and were stored frozen in liquid nitrogen until required for use.
(§2) HBE cells were amplified by growing in secondary culture according to the suppliers' instructions. Cells were seeded at densities of between 3,000 to 4,000/cm^2 in plastic T-25 culture flasks in bronchial epithelial cell growth medium (BEGM) prepared from bronchial epithelial basal medium (BEBM, Cambrex, UK) supplemented with bovine pituitary extract, hydrocortisone, human epidermal growth factor, epinephrine, transferrin, insulin, retinoic acid, triiodothyronine, gentamicin, and amphotericin B. Cultures were maintained at 37° C. in 5% CO2 in a humidified incubator. Medium was changed every 1 to 3 days until cells were approximately 90% confluent. Cells were then passaged with trypsin EDTA according to the suppliers' instructions, and either used for further cell cultures, or cryopreserved in liquid nitrogen in BEGM containing 10% foetal bovine serum and 10% DMSO.
(§3) HBE cells were prepared for electrophysiology studies by growing as tertiary cultures on Snapwell (Corning) 0.4μ clear polyester membrane inserts 1.2 cm^2 coated with collagen IV (Sigma). Cells were seeded at approximately 10^5/cm^2 in 0.5 ml 1:1 DMEM (Cambrex, UK) BEGM containing bovine pituitary extract (50 μg/ml), hydrocortisone (0.5 μg/ml), human epidermal growth factor (0.5 ng/ml), epinephrine (0.5 μg/ml), transferrin (10 μg/ml), insulin (5 μg/ml), retinoic acid (50 nM), and gentamicin (50 μg/ml) (Danahay medium; Danahay et al. 2002). Snapwell inserts were mounted in 6-well plates with 3 ml Danahay medium in the wells, and grown at 37° C. in 5% CO2 in a humidified incubator. Medium was changed every 1 to 3 days. An apical air-liquid interface (ALI) was established as the cells achieved confluence (3 to 6 days) by removal of medium from the centre of the insert. Confluent differentiated bronchial epithelial cells were used for electrophysiology studies at between 15 and 29 days after establishing ALI.
(§4) Differentiated HBE cells grown to confluence at an air-liquid interface for 15 to 29 days were used to study substances for ability to achieve long duration down regulation of the epithelial amiloride-sensitive sodium channel (ENaC).
(§5) Step 1: Treatment with substance. For each group of cells treated with a substance, 30 μl of 100 times final concentration of substance was added to the 3 ml basolateral culture medium, mixed and 150 μl of the resultant basolateral fluid was transferred to the apical surface for 5 min. For non-treatment control groups of basolateral fluid with no added substance was transferred to the apical surface. After 5 min. equilibration the excess apical fluid was then transferred back to the basolateral side of the culture well.
(§6) Step 2: Variable period of incubation with the substance. Dependent on the individual experiment the cells were returned to the 37° C. incubator for periods of 0 min. to 120 min.
(§7) Step 3: Period of substance washout with fresh culture medium. For experiments to study the duration of a substance response the HBE cells on Snapwell inserts were washed with fresh culture medium (no added substance) at 37° C. and placed in fresh 6-well plates containing 3 ml fresh culture medium (no added substance) on the basolateral side. […] Step 3 was omitted in studies where the duration of the substance response was not investigated.
(§8) Step 4: Wash with Krebs-Ringer buffer and assembly in Ussing chambers. The Snapwell insert cultures of HBE cells were removed from the 6-well plates and washed with excess Krebs-Ringer buffer (120 mM-NaCl, 25 mM-NaHCO3, 3.3 mM-KH2PO4, 0.8 mM-K2HPO4, 1.2 mM-CaCl2, 1.2 mM-MgCl2, 10 mM-glucose) pH7.4 at 37° C. The inserts were then mounted in Ussing chambers (Snapwell diffusion chambers, Costar UK Ltd.). Each side of the chamber was filled with 5 ml Krebs-Ringer buffer and gassed continuously with 95% O2/5% CO2 at 37° C. […]

[2] = test system: cortical collecting duct of the rabbit kidney; conditions: perfused; Muto et al. 1994; cited from earlier work
nasal epithelium = assay: Mucus host-defence responses during nasal perfusion; type: in vivo, human; conditions: perfusion with 10^−5 M in low chloride Ringer/HEPES buffer
Description: Perfusion of the nasal epithelium with low chloride Ringer/HEPES buffer imposes a chemical gradient for chloride secretion, and therefore also provides a drive for fluid secretion.
Mucus host-defence episodes were scored 1 to 3 on the basis of the number of features and the magnitude of the responses observed. FIG. 10 reports the score of the episodes recorded, and indicates the time of their occurrence in the perfusion protocol.

[3] = target: T3, epithelial amiloride-sensitive sodium channel (ENaC) (Homo sapiens, UniProt P37088+P51168+P51170); type: cell-based
T3 construct: Differentiated HBE cells grown to confluence at an air-liquid interface for 15 to 29 days were used; host or cells: primary human bronchial epithelial (HBE) cells, differentiated at air-liquid interface
Description: as §1, §2, §3, §4, §5, §6, §7, §8

[4] = test system: amiloride-sensitive (sodium-dependent) component of nasal PD; assay: Nasal PD measurement during perfusion of human nasal epithelium; type: in vivo; conditions: perfusion with 10^−5 M-amiloride
Description: The method of measurement of nasal PD was an adaptation of that described by Standaert et al. (2004).
Ringer/HEPES buffer solution was prepared containing 148 mM-NaCl, 4.05 mM-KCl, 1.2 mM-CaCl2, 1.2 mM-MgCl2, 2.4 mM-K2HPO4, 0.4 mM-KH2PO4, 10 mM-HEPES, and adjusted to pH 7.4. Low chloride Ringer/HEPES buffer solution was prepared by replacing NaCl with 148 mM-Na gluconate in the Ringer solution components.
Agar electrodes were prepared with 3.7% agarose dissolved in Ringer/HEPES buffer pH 7.4. The reference electrode was placed and taped in contact with a small area on the forearm where the epidermis had been removed by gentle abrasion. A dual lumen nasal recording electrode was prepared using a lm length of soft plastic tubing 2.4 mm diameter, into which 1 mm diameter polythene tubing was inserted through the wall and along the lumen for 15 cm from one end. The 2.4 mm diameter tubing was filled with 3.7% agarose dissolved in Ringer/HEPES buffer pH 7.4. The 1 mm diameter tubing was used for perfusion of buffer solutions and drugs to the nasal epithelium. The ends of the agar electrodes were each placed in contact with a calomel half-cell in 3 M-KCl solution. Voltages were measured by connecting the calomel electrodes to a high impedance voltmeter (Keithley 617 programmable electrometer). Output from the voltmeter was recorded by connection to a Biopac MP100 data aquisition unit and PC running Acqknowledge III data acquisition software.
Nasal PD was recorded via the recording electrode placed in contact with the nasal epithelium approximately 4 cm inside the nostril. The nasal epithelium was perfused according to the following schedule and nasal PD was recorded continuously.
1. Ringer/HEPES buffer was perfused at 0.5 ml/min for 5 min, and starting baseline PD was recorded.
2. Perfusion was then switched to low chloride Ringer/HEPES buffer pH 7.4 for 30 min during which time initial hyperpolarisation of the epithelium occurred.
3. The nasal epithelium was then perfused with 10^−5 M-amiloride in low chloride Ringer/HEPES buffer pH 7.4 for 10 min. Measurement of the amiloride-sensitive (sodium-dependent) component of nasal PD was then made by measuring the difference between the average PD recorded over the 2 min before perfusion with amiloride and the average PD recorded in the period 4 to 6 min after perfusion with amiloride.
4. Amiloride was washed away from the nasal epithelium by perfusion with low chloride Ringer/HEPES buffer pH 7.4 for 30 min.
5. Steps 3 and 4 were then repeated twice more.
6. The nasal epithelium was then perfused with 3 μM 6-amidino-2-napthyl 4-guanidinobenzoate in low chloride Ringer/HEPES buffer pH 7.4 for 60 min.
7. Steps 3 and 4 were then repeated a further twice, followed by either a period of administration of amiloride (3 experiments), or a final repetition of both steps 3 and 4 (1 experiment).
Over the 5 h time course of each experiment nasal PD drifted and oscillated. […] Changes in nasal PD caused by perfusion of amiloride were calculated as the difference between the mean PD recorded in the 2 min period before perfusion with amiloride and the mean PD recorded in the plateau period 4 to 6 min after start of perfusion with amiloride. Within each experiment the change in nasal PD at each period of application of amiloride was expressed as a percentage of the maximum change observed in the experiment.

Compound: aprotinin
efficacy compared with high dose amiloride (ENaC): same range

amiloride ΔIsc compared to control ([1]; HBE 22 d, 17 d ALI (FIG. 8A)): not significantly different
Compound: N=C(N)Nc1ccc(C(=O)O)cc1 [pGBA, p-guanidinobenzoic acid]
minimum effective concentration [2]: 10^−5 M

amiloride ΔIsc compared to control ([1]; HBE 34 & 35 d, 28 & 29 d ALI (FIG. 8B)): not significantly different
Compound: N=C(N)c1ccc2cc(O)ccc2c1 [AN, 6-amidino-2-naphthol]
minimum effective concentration [2]: 10^−4 M

Compound: N=C(N)NC(=O)c1nc(Cl)c(N)nc1N [amiloride]
mucus host-defence responses (nasal epithelium): stimulated episodes of mucus host-defence responses
ΔIsc (amiloride addition) ([3]; 10 μM amiloride apical, HBE cells 24 d in culture, 21 d ALI, FIG. 1): 9.2 μAmp
time for short circuit current to fall to new plateau after application of amiloride ([3]; 10 μM-amiloride, apical surface): ≤ 2 min
time at which partial depolarisation of nasal epithelium was observable [4]: ≤ 2 min
